# According to PubChem BioAssay (NCI):
#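 Exposure lasted 48 hours, with cells grown in 96-well plates and compounds tested at five concentrations. TGI is the concentration that stops growth completely.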
# Tests used:
# Assay in all cases: growth of human tumour cells (NCI), 48 h
# K-562 leukemia = tested on: K-562 leukemia
# U251 CNS = tested on: U251 CNS
# NCI-H226 lung = tested on: NCI-H226 lung
# SK-OV-3 ovarian = tested on: SK-OV-3 ovarian
# TK-10 renal = tested on: TK-10 renal
# HOP-62 NSCLC = tested on: HOP-62 NSCLC
# SF-539 CNS = tested on: SF-539 CNS
# MOLT-4 leukemia = tested on: MOLT-4 leukemia
# HOP-18 NSCLC = tested on: HOP-18 NSCLC
# MALME-3M melanoma = tested on: MALME-3M melanoma
# RPMI-8226 leukemia = tested on: RPMI-8226 leukemia
# SNB-75 CNS = tested on: SNB-75 CNS
# HCC-2998 colon = tested on: HCC-2998 colon
# UO-31 renal = tested on: UO-31 renal
# HL-60(TB) leukemia = tested on: HL-60(TB) leukemia
# OVCAR-4 ovarian = tested on: OVCAR-4 ovarian
# SF-295 CNS = tested on: SF-295 CNS
# HCT-15 colon = tested on: HCT-15 colon
# COLO 205 colon = tested on: COLO 205 colon
# OVCAR-3 ovarian = tested on: OVCAR-3 ovarian
# ACHN renal = tested on: ACHN renal
# NCI-H460 lung = tested on: NCI-H460 lung
# SW-620 colon = tested on: SW-620 colon
# CCRF-CEM leukemia = tested on: CCRF-CEM leukemia
# M19-MEL melanoma = tested on: M19-MEL melanoma
# SR leukemia = tested on: SR leukemia
# 786-0 renal = tested on: 786-0 renal
# KM20L2 colon = tested on: KM20L2 colon
# SF-268 CNS = tested on: SF-268 CNS
# EKVX NSCLC = tested on: EKVX NSCLC
# HOP-92 NSCLC = tested on: HOP-92 NSCLC
# SN12C renal = tested on: SN12C renal
# XF 498 CNS = tested on: XF 498 CNS
# OVCAR-5 ovarian = tested on: OVCAR-5 ovarian
# SNB-78 CNS = tested on: SNB-78 CNS
# CAKI-1 renal = tested on: CAKI-1 renal
# SK-MEL-28 melanoma = tested on: SK-MEL-28 melanoma
# A498 renal = tested on: A498 renal
# SNB-19 CNS = tested on: SNB-19 CNS
# UACC-62 melanoma = tested on: UACC-62 melanoma
# LXFL 529 NSCLC = tested on: LXFL 529 NSCLC
# SK-MEL-2 melanoma = tested on: SK-MEL-2 melanoma
# A549 NSCLC = tested on: A549 NSCLC
# IGROV1 ovarian = tested on: IGROV1 ovarian
# HT29 colon = tested on: HT29 colon
# DMS 273 small cell lung = tested on: DMS 273 small cell lung
# DLD-1 colon = tested on: DLD-1 colon
# SK-MEL-5 melanoma = tested on: SK-MEL-5 melanoma
# LOX IMVI melanoma = tested on: LOX IMVI melanoma
# OVCAR-8 ovarian = tested on: OVCAR-8 ovarian
# HCT-116 colon = tested on: HCT-116 colon
# M14 melanoma = tested on: M14 melanoma
# DMS 114 small cell lung = tested on: DMS 114 small cell lung
# KM12 colon = tested on: KM12 colon
# RXF 393 renal = tested on: RXF 393 renal
# RXF-631 renal = tested on: RXF-631 renal
# NCI-H23 lung = tested on: NCI-H23 lung
# UACC-257 melanoma = tested on: UACC-257 melanoma
# NCI-H522 lung = tested on: NCI-H522 lung
structure (smiles),measurement,setting,value
C=C1CCC(OC(C)=O)C2(C)C(OC(C)=O)CC3OC3(C)C2C(OC(C)=O)C2C(C)C(=O)OC2C1Cl (configuration not stated),TGI,K-562 leukemia,> 100 µM
same,TGI,U251 CNS,> 100 µM
same,TGI,NCI-H226 lung,> 100 µM
same,TGI,SK-OV-3 ovarian,> 100 µM
same,TGI,TK-10 renal,> 100 µM
same,TGI,HOP-62 NSCLC,> 100 µM
same,TGI,SF-539 CNS,> 100 µM
same,TGI,MOLT-4 leukemia,> 100 µM
same,TGI,HOP-18 NSCLC,> 100 µM
same,TGI,MALME-3M melanoma,> 100 µM
same,TGI,RPMI-8226 leukemia,> 100 µM
same,TGI,SNB-75 CNS,> 100 µM
same,TGI,HCC-2998 colon,> 100 µM
same,TGI,UO-31 renal,> 100 µM
same,TGI,HL-60(TB) leukemia,> 100 µM
same,TGI,OVCAR-4 ovarian,> 100 µM
same,TGI,SF-295 CNS,> 100 µM
same,TGI,HCT-15 colon,> 100 µM
same,TGI,COLO 205 colon,> 100 µM
same,TGI,OVCAR-3 ovarian,> 100 µM
same,TGI,ACHN renal,> 100 µM
same,TGI,NCI-H460 lung,> 100 µM
same,TGI,SW-620 colon,> 100 µM
same,TGI,CCRF-CEM leukemia,> 100 µM
same,TGI,M19-MEL melanoma,> 100 µM
same,TGI,SR leukemia,> 100 µM
same,TGI,786-0 renal,> 100 µM
same,TGI,KM20L2 colon,> 100 µM
same,TGI,SF-268 CNS,> 100 µM
same,TGI,EKVX NSCLC,> 100 µM
same,TGI,HOP-92 NSCLC,> 100 µM
same,TGI,SN12C renal,> 100 µM
same,TGI,XF 498 CNS,> 100 µM
same,TGI,OVCAR-5 ovarian,> 100 µM
same,TGI,SNB-78 CNS,> 100 µM
same,TGI,CAKI-1 renal,> 100 µM
same,TGI,SK-MEL-28 melanoma,> 100 µM
same,TGI,A498 renal,> 100 µM
same,TGI,SNB-19 CNS,> 100 µM
same,TGI,UACC-62 melanoma,> 100 µM
same,TGI,LXFL 529 NSCLC,> 100 µM
same,TGI,SK-MEL-2 melanoma,> 100 µM
same,TGI,A549 NSCLC,> 100 µM
same,TGI,IGROV1 ovarian,> 100 µM
same,TGI,HT29 colon,> 100 µM
same,TGI,DMS 273 small cell lung,> 100 µM
same,TGI,DLD-1 colon,> 100 µM
same,TGI,SK-MEL-5 melanoma,> 100 µM
same,TGI,LOX IMVI melanoma,> 100 µM
same,TGI,OVCAR-8 ovarian,> 100 µM
same,TGI,HCT-116 colon,> 100 µM
same,TGI,M14 melanoma,> 100 µM
same,TGI,DMS 114 small cell lung,> 100 µM
same,TGI,KM12 colon,> 100 µM
same,TGI,RXF 393 renal,> 100 µM
same,TGI,RXF-631 renal,> 100 µM
same,TGI,NCI-H23 lung,> 100 µM
same,TGI,UACC-257 melanoma,> 100 µM
COc1ccc(C2SCc3nc4ccccc4n32)cc1 (configuration not stated),TGI,K-562 leukemia,> 100 µM
same,TGI,U251 CNS,85.4 µM
same,TGI,NCI-H226 lung,> 100 µM
same,TGI,SK-OV-3 ovarian,> 100 µM
same,TGI,TK-10 renal,> 100 µM
same,TGI,SF-539 CNS,> 100 µM
same,TGI,MOLT-4 leukemia,45.5 µM
same,TGI,HOP-18 NSCLC,> 100 µM
same,TGI,MALME-3M melanoma,> 100 µM
same,TGI,RPMI-8226 leukemia,13.7 µM
same,TGI,SNB-75 CNS,4.54 µM
same,TGI,UO-31 renal,66.5 µM
same,TGI,HL-60(TB) leukemia,5.43 µM
same,TGI,SF-295 CNS,> 100 µM
same,TGI,HCT-15 colon,> 100 µM
same,TGI,OVCAR-3 ovarian,> 100 µM
same,TGI,ACHN renal,> 100 µM
same,TGI,NCI-H460 lung,> 100 µM
same,TGI,SW-620 colon,> 100 µM
same,TGI,CCRF-CEM leukemia,> 100 µM
same,TGI,M19-MEL melanoma,> 100 µM
same,TGI,KM20L2 colon,6.25 µM
same,TGI,SF-268 CNS,> 100 µM
same,TGI,EKVX NSCLC,> 100 µM
same,TGI,HOP-92 NSCLC,8.75 µM
same,TGI,SN12C renal,> 100 µM
same,TGI,XF 498 CNS,4.13 µM
same,TGI,SNB-78 CNS,> 100 µM
same,TGI,NCI-H522 lung,5.42 µM
same,TGI,CAKI-1 renal,> 100 µM
same,TGI,SK-MEL-28 melanoma,> 100 µM
same,TGI,A498 renal,65.8 µM
same,TGI,SNB-19 CNS,> 100 µM
same,TGI,UACC-62 melanoma,> 100 µM
same,TGI,LXFL 529 NSCLC,> 100 µM
same,TGI,SK-MEL-2 melanoma,> 100 µM
same,TGI,IGROV1 ovarian,> 100 µM
same,TGI,HT29 colon,7.02 µM
same,TGI,DMS 273 small cell lung,53.6 µM
same,TGI,SK-MEL-5 melanoma,14.9 µM
same,TGI,LOX IMVI melanoma,> 100 µM
same,TGI,OVCAR-8 ovarian,> 100 µM
same,TGI,M14 melanoma,> 100 µM
same,TGI,DMS 114 small cell lung,8.07 µM
same,TGI,RXF-631 renal,> 100 µM
same,TGI,NCI-H23 lung,> 100 µM
CCOCc1cc(=O)c2cc3c(cc2o1)OC(C)(C)CC3,TGI,K-562 leukemia,> 100 µM
same,TGI,U251 CNS,> 100 µM
same,TGI,NCI-H226 lung,> 100 µM
same,TGI,SK-OV-3 ovarian,> 100 µM
same,TGI,TK-10 renal,> 100 µM
same,TGI,HOP-62 NSCLC,> 100 µM
same,TGI,SF-539 CNS,> 100 µM
same,TGI,MOLT-4 leukemia,> 100 µM
same,TGI,HOP-18 NSCLC,> 100 µM
same,TGI,MALME-3M melanoma,> 100 µM
same,TGI,RPMI-8226 leukemia,> 100 µM
same,TGI,SNB-75 CNS,> 100 µM
same,TGI,HCC-2998 colon,> 100 µM
same,TGI,UO-31 renal,> 100 µM
same,TGI,HL-60(TB) leukemia,> 100 µM
same,TGI,OVCAR-4 ovarian,> 100 µM
same,TGI,SF-295 CNS,> 100 µM
same,TGI,HCT-15 colon,> 100 µM
same,TGI,COLO 205 colon,> 100 µM
same,TGI,OVCAR-3 ovarian,> 100 µM
same,TGI,ACHN renal,> 100 µM
same,TGI,NCI-H460 lung,> 100 µM
same,TGI,SW-620 colon,> 100 µM
same,TGI,CCRF-CEM leukemia,> 100 µM
same,TGI,M19-MEL melanoma,> 100 µM
same,TGI,SR leukemia,> 100 µM
same,TGI,786-0 renal,> 100 µM
same,TGI,KM20L2 colon,> 100 µM
same,TGI,SF-268 CNS,> 100 µM
same,TGI,EKVX NSCLC,> 100 µM
same,TGI,HOP-92 NSCLC,> 100 µM
same,TGI,SN12C renal,> 100 µM
same,TGI,XF 498 CNS,> 100 µM
same,TGI,OVCAR-5 ovarian,> 100 µM
same,TGI,SNB-78 CNS,> 100 µM
same,TGI,NCI-H522 lung,> 100 µM
same,TGI,CAKI-1 renal,> 100 µM
same,TGI,A498 renal,> 100 µM
same,TGI,SNB-19 CNS,> 100 µM
same,TGI,UACC-62 melanoma,> 100 µM
same,TGI,LXFL 529 NSCLC,> 100 µM
same,TGI,SK-MEL-2 melanoma,> 100 µM
same,TGI,A549 NSCLC,> 100 µM
same,TGI,IGROV1 ovarian,> 100 µM
same,TGI,HT29 colon,> 100 µM
same,TGI,DMS 273 small cell lung,> 100 µM
same,TGI,DLD-1 colon,> 100 µM
same,TGI,SK-MEL-5 melanoma,> 100 µM
same,TGI,LOX IMVI melanoma,> 100 µM
same,TGI,OVCAR-8 ovarian,> 100 µM
same,TGI,HCT-116 colon,> 100 µM
same,TGI,M14 melanoma,> 100 µM
same,TGI,DMS 114 small cell lung,> 100 µM
same,TGI,KM12 colon,> 100 µM
same,TGI,RXF 393 renal,> 100 µM
same,TGI,RXF-631 renal,> 100 µM
same,TGI,NCI-H23 lung,> 100 µM
same,TGI,UACC-257 melanoma,> 100 µM
